Data published in patent publication US11802120B2, “Fused cyclic urea derivatives as CRHR2 antagonist” (RaQualia Pharma Inc., priority 2018, dated 2023).

Tests used:
Assay type in all cases: cell-based
CRHR2 = biological target: T1, CRHR2 (Homo sapiens, UniProt Q13324); experiment: CRHR2 antagonistic activity (inhibitory activity against CRHR2)
T1 sequence (Q13324 1-411): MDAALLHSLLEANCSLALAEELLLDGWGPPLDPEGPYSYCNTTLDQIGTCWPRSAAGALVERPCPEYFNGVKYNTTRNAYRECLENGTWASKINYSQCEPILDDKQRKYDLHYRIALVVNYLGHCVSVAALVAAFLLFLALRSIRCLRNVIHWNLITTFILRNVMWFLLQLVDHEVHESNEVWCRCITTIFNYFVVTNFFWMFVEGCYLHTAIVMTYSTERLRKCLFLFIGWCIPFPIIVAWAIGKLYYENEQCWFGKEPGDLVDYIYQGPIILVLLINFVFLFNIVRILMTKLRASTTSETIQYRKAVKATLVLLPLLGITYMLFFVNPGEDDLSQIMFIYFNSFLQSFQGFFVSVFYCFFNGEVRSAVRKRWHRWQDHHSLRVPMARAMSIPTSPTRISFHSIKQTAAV

human CRHR2-alpha = biological target: T2, human CRHR2-alpha (Homo sapiens, UniProt Q13324); experiment: cAMP functional assay for human CRHR2 (LANCE Ultra cAMP, TR-FRET); details: CHO-K1 cells expressing human CRHR2-alpha, agonist human urocortin2 at EC80, cAMP; read-out: IC50 against CRHR2
T2 sequence (Q13324 1-411): T1 sequence (Q13324 1-411)
In short: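 CHO-K1 cells stably expressing each receptor, serum-starved and cryopreserved, were preincubated with compound 30 min at 25° C in HBSS buffer with 0.5 mM IBMX, pH 7.4, then stimulated 30 min with EC80 agonist (urocortin2 for CRHR2, CRF for CRHR1). cAMP read by TR-FRET; IC50 from percent-inhibition curves.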

human CRHR1-beta = biological target: T3, human CRHR1-beta (Homo sapiens, UniProt P34998); experiment: cAMP functional assay for human CRHR1 (LANCE Ultra cAMP, TR-FRET); details: CHO-K1 cells expressing human CRHR1-beta, agonist CRF at EC80, cAMP; read-out: IC50 against CRHR1
T3 sequence (P34998 24-444 isoform P34998-1 limits assumed): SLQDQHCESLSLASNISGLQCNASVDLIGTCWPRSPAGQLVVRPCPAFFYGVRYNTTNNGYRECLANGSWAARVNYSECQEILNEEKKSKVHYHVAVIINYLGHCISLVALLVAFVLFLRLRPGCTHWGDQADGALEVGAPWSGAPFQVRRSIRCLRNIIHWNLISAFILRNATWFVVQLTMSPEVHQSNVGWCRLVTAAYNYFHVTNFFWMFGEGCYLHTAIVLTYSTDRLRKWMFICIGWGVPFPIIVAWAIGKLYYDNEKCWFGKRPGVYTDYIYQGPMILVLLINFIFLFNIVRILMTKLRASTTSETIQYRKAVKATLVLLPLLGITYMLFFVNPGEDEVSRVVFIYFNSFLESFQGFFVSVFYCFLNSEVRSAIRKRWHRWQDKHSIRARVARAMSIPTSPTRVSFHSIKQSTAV
Method: cAMP functional assay for human CRHR1 and CRHR2
The ability of the compounds of this invention to inhibit either CRHR2 or CRHR1 is assessed by 3′,5′-cyclic adenosine monophosphate (cAMP) production in cells using the LANCE Ultra cAMP assay kit (ParkinElmer), which are designed based on the homogeneous time-resolved fluorescence resonance energy transfer (TR-FRET) immunoassay.
CHO-K1 (Chinese hamster ovary) cells stably expressing either human CRHR2-alpha (DiscoveRX, Cat. 95-0048C2) or human CRHR1-beta (DiscoveRX, Cat. 95-0047C2) are grown in HAM's F12 media supplemented with 10% fetal bovine serum (FBS), 100 units/mL penicillin, 100 microg/mL hygromycin and 0.5 microg/mL geneticin at 37° C. in 5% CO2 humidified incubator to 80% confluence. After 7 hours starvation treatment in culture media containing 0.1% FBS, the cells are washed with Hanks balanced salt solution (HBSS) and cryopreserved.
For cAMP assay, frozen cells are thawed and washed with HBSS, followed by resuspended in assay buffer (HBSS containing 0.1% bovine serum albumin, 0.5 mM isobutylmethylxanthine and 5 mM Hepes, pH 7.4) at the appropriate concentration for the assay. The cell suspensions are plated on 384-well microplates (Greiner Bio-One) at a density of 4,000 cells per well. After preincubating the cells with various concentrations of the compounds for 30 min at 25° C., an assay buffer containing EC80 concentration of each agonist is added and the cells are incubated for 30 min at 25° C. Human urocortin2 (Peptide Institute) and CRF (Peptide Institute) are used as agonists for CRHR2 and CRHR1, respectively. For the termination of assay, europium-labeled cAMP tracer and ULight (registered trademark) dye labeled cAMP antibodies, both prepared with Lance-Ultra cAMP detection reagent (Perkin Elmer) are added in the plate and incubate for 60 min at 25° C. After incubation, TR-FRET signal is detected by EnVision plate reader (PerkinElmer). The IC50 values for compounds are calculated from dose-response curves by fitting the percent inhibition using XLfit (ID Business Solutions).

SMILES | IC50 (CRHR2) | IC50 (human CRHR2-alpha) | IC50 (human CRHR1-beta)
Cc1ncc(Cl)cc1C(=O)N[C@H]1CC[C@H](Cn2c(=O)n(-c3ccccc3)c3ccccc32)CC1 [Example 1, 5-chloro-2-methyl-N-((1r,4r)-4-((2-oxo-3-phenyl-2,3-dihydro-1H-benzo[d]imidazol-1-yl)methyl)cyclohexyl)nicotinamide] | 390 nM | – | –
Cc1ncc(Cl)cc1C(=O)N[C@H]1CC[C@H](Cn2c(=O)n(Cc3ccccc3)c3ccccc32)CC1 [Example 2, N-((1r,4r)-4-((3-benzyl-2-oxo-2,3-dihydro-1H-benzo[d]imidazol-1-yl)methyl)cyclohexyl)-5-chloro-2-methylnicotinamide] | 180 nM | < 300 nM | –
CCn1c(=O)n(C[C@H]2CC[C@H](NC(=O)c3cc(Cl)cnc3C)CC2)c2ccccc21 [Example 2.46, reference compound] | 3000 nM | – | –
Cc1ncc(Cl)cc1C(=O)N[C@H]1CC[C@H](Cn2c(=O)n(C)c3ccccc32)CC1 [Example 2.50, reference compound] | 13000 nM | – | –
Cc1ccc(-n2c(=O)n(C[C@H]3CC[C@H](NC(=O)c4cc(Cl)cnc4C)CC3)c3ccccc32)cc1 [Example 25, 5-chloro-2-methyl-N-((1r,4r)-4-((2-oxo-3-(p-tolyl)-2,3-dihydro-1H-benzo[d]imidazol-1-yl)methyl)cyclohexyl)nicotinamide] | – | < 300 nM | < 1000 nM
COc1ccc(-n2c(=O)n(C[C@H]3CC[C@H](NC(=O)c4cc(Cl)cnc4C)CC3)c3ccccc32)cc1 [Example 27, 5-chloro-N-((1r,4r)-4-((3-(4-methoxyphenyl)-2-oxo-2,3-dihydro-1H-benzo[d]imidazol-1-yl)methyl)cyclohexyl)-2-methylnicotinamide] | – | < 300 nM | < 1000 nM
Cc1ccc(-n2c(=O)n(C[C@H]3CC[C@H](NC(=O)c4cc(Cl)cnc4C)CC3)c3ccccc32)c(C)n1 [Example 32, 5-chloro-N-((1r,4r)-4-((3-(2,6-dimethylpyridin-3-yl)-2-oxo-2,3-dihydro-1H-benzo[d]imidazol-1-yl)methyl)cyclohexyl)-2-methylnicotinamide] | – | < 300 nM | < 1000 nM
COc1ccccc1-n1c(=O)n(C[C@H]2CC[C@H](NC(=O)c3cc(Cl)cnc3C)CC2)c2ccccc21 [Example 34, 5-chloro-N-((1r,4r)-4-((3-(2-methoxyphenyl)-2-oxo-2,3-dihydro-1H-benzo[d]imidazol-1-yl)methyl)cyclohexyl)-2-methylnicotinamide] | – | < 300 nM | < 1000 nM
COc1cc(-n2c(=O)n(C[C@H]3CC[C@H](NC(=O)c4cc(Cl)cnc4C)CC3)c3ccccc32)ccn1 [Example 45, 5-chloro-N-((1r,4r)-4-((3-(2-methoxypyridin-4-yl)-2-oxo-2,3-dihydro-1H-benzo[d]imidazol-1-yl)methyl)cyclohexyl)-2-methylnicotinamide] | – | < 300 nM | < 1000 nM
Cc1ncc(Cl)cc1C(=O)N[C@H]1CC[C@H](Cn2c(=O)n(-c3ccc(OCCO)nc3)c3ccccc32)CC1 [Example 50, 5-chloro-N-((1r,4r)-4-((3-(6-(2-hydroxyethoxy)pyridin-3-yl)-2-oxo-2,3-dihydro-1H-benzo[d]imidazol-1-yl)methyl)cyclohexyl)-2-methylnicotinamide] | – | < 300 nM | < 1000 nM
Cc1ncc(Cl)cc1C(=O)N[C@H]1CC[C@H](Cn2c(=O)n(-c3ccc(C(N)=O)nc3)c3ccccc32)CC1 [Example 62, 5-(3-(((1r,4r)-4-(5-chloro-2-methylnicotinamido)cyclohexyl)methyl)-2-oxo-2,3-dihydro-1H-benzo[d]imidazol-1-yl)picolinamide] | – | < 300 nM | < 1000 nM
CNC(=O)c1ccc(-n2c(=O)n(C[C@H]3CC[C@H](NC(=O)c4cc(Cl)cnc4C)CC3)c3ccccc32)cn1 [Example 63, 5-(3-(((1r,4r)-4-(5-chloro-2-methylnicotinamido)cyclohexyl)methyl)-2-oxo-2,3-dihydro-1H-benzo[d]imidazol-1-yl)-N-methylpicolinamide] | – | < 300 nM | < 1000 nM
Cc1ncc(Cl)cc1C(=O)N[C@H]1CC[C@H](Cn2c(=O)n(-c3ccc(N(C)CCO)nc3)c3ccccc32)CC1 [Example 64, 5-chloro-N-((1r,4r)-4-((3-(6-((2-hydroxyethyl)(methyl)amino)pyridin-3-yl)-2-oxo-2,3-dihydro-1H-benzo[d]imidazol-1-yl)methyl)cyclohexyl)-2-methylnicotinamide] | – | < 300 nM | < 1000 nM
Cc1ncc(Cl)cc1C(=O)N[C@H]1CC[C@H](Cn2c(=O)n(-c3ccc(N(C)C)nn3)c3ccccc32)CC1 [Example 67, 5-chloro-N-((1r,4r)-4-((3-(6-(dimethylamino)pyridazin-3-yl)-2-oxo-2,3-dihydro-1H-benzo[d]imidazol-1-yl)methyl)cyclohexyl)-2-methylnicotinamide] | – | < 300 nM | < 1000 nM
CNc1ccc(-n2c(=O)n(C[C@H]3CC[C@H](NC(=O)c4cc(Cl)cnc4C)CC3)c3ccccc32)cn1 [Example 91, 5-chloro-2-methyl-N-((1r,4r)-4-((3-(6-(methylamino)pyridin-3-yl)-2-oxo-2,3-dihydro-1H-benzo[d]imidazol-1-yl)methyl)cyclohexyl)nicotinamide] | – | < 300 nM | < 1000 nM
CCNc1ccc(-n2c(=O)n(C[C@H]3CC[C@H](NC(=O)c4cc(Cl)cnc4C)CC3)c3ccccc32)cn1 [Example 92, 5-chloro-N-((1r,4r)-4-((3-(6-(ethylamino)pyridin-3-yl)-2-oxo-2,3-dihydro-1H-benzo [d]imidazol-1-yl)methyl)cyclohexyl)-2-methylnico-tinamide] | – | < 300 nM | < 1000 nM
Cc1ncc(Cl)cc1C(=O)N[C@H]1CC[C@H](Cn2c(=O)n(-c3ccc(N(C)CCCO)nc3)c3ccccc32)CC1 [Example 94, 5-chloro-N-((1r,4r)-4-((3-(6-((3-hydroxypropyl)(methyl)amino)pyridin-3-yl)-2-oxo-2,3-dihydro-1H-benzo[d]imidazol-1-yl)methyl)cyclo-hexyl)-2-methylnicotinamide] | – | < 300 nM | < 1000 nM
Cc1ncc(Cl)cc1C(=O)N[C@H]1CC[C@H](Cn2c(=O)n(-c3cnc4[nH]ncc4c3)c3ccccc32)CC1 [Example 128, 5-chloro-2-methyl-N-((1r,4r)-4-((2-oxo-3-(1H-pyrazolo[3,4-b]pyridin-5-yl)-2,3-dihydro-1H-benzo[d]imidazol-1-yl)methyl)cyclohexyl)nicotinamide] | 280 nM | < 300 nM | –
Cc1ncc(Cl)cc1C(=O)N[C@H]1CC[C@H](Cn2c(=O)n(-c3cnc4c(ccn4C)c3)c3ccccc32)CC1 [Example 148, 5-chloro-2-methyl-N-((1r,4r)-4-((3-(1-methyl-1H-pyrrolo [2,3-b]pyridin-5-yl)-2-oxo-2,3-dihydro-1H-benzo[d]imidazol-1-yl)methyl)cyclo-hexyl)nicotinamide] | 60 nM | < 300 nM | –
Cc1ncc(Cl)cc1C(=O)N[C@H]1CC[C@H](Cn2c(=O)n(C3CCCCC3)c3ccccc32)CC1 [reference compound (A), reference compound] | 3100 nM | – | –
